A word on the IC50: it is the concentration that gives 50% inhibition. Usually clearance stands for the rate of elimination divided by the concentration. Broadly, the AUC is concentration integrated over time. As a reminder, the Cmax is the maximum level reached in the sampled fluid or tissue.

Read-outs that look alike come from different tables or passages of the source.

For data set [1], the system named is p-ERK in NCI-H441 cells (KRAS G12V mutation). In words: Cell p-ERK assay (HTRF) in NCI-H441 cells. The class given is cell-based, human. The conditions noted are these: NCI-H441 cells, 3 h compound incubation, HTRF p-ERK T202/Y204, read-out: H441 p-ERK IC50. Summed up: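 Cells are plated (AsPC-1 at 10000, NCI-H441 at 20000 per well) and cultured overnight. Next day compound is added in a 3.16-fold dilution series with 0.1% DMSO and left 3 h. After lysis, p-ERK antibodies incubate 4 h before HTRF reading and four-parameter IC50 fitting.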

The nature of data set [2]: Pharmacokinetic study in rats. The class given is in vivo, Sprague-Dawley (SD) rats. The note with it: male SD rats; for clearance / CL: IV; for AUC / Cmax: PO (intragastric), dose 10 mg/kg. An excerpt:
A total of 6 healthy adult male Sprague-Dawley (SD) rats were provided by Zhejiang Vital River Laboratory Animal Technology Co., Ltd. For each test compound, 6 healthy adult male SD rats were selected and randomly divided into 2 groups: an intravenous administration (IV) group and an intragastric administration (PO) group. The LC-MS/MS method was used to determine the drug concentrations in the plasma of rats at different time points after intravenous and intragastric administration of the test compounds. This experiment was intended to investigate the pharmacokinetic performance of the test compounds in rats and to evaluate the pharmacokinetic characteristics. Each drug used in the experiment was prepared from the test compound powder: An appropriate amount of test compound powder was weighed out, and appropriate amounts of DMSO, a 10% aqueous Solutol HS 15 solution, and a 6% aqueous HP-β-CD solution were sequentially added according to a volume ratio of 5:10:85. The mixture was vortexed and sonicated until clarification. The final concentration of the drug in the IV group was 0.5 mg/mL, and the final concentration of the drug in the PO group was 1 mg/mL; the concentrations could be adjusted according to actual needs. For the drug in the PO group of Z504, an appropriate amount of test compound powder was weighed out, and an appropriate amount of 0.5% MC+0.2% Tween 80 aqueous solution was added. The mixture was well mixed by vortexing to give a 1 mg/mL homogeneous suspension: the concentration could be adjusted according to actual needs.
All experimental rats were fasted overnight, and food intake was resumed 4 h after administration. For the rats in the IV group, the administration volume was set at 2 mL/kg, with Z554 and Z915 administered at a dose of 0.5 mg/kg and the other compounds at a dose of 1 mg/kg. For the rats in the PO group, the administration volume was 10 mL/kg and the dose was 10 mg/kg. The administration amount was adjusted according to the body weight of the rats on the day of administration. In the experiment, blood samples were collected from the rats in the IV group at multiple time points (0.0833 h, 0.25 h, 0.5 h, 1 h, 2 h, 4 h, 7 h, and 24 h) after administration, while blood samples were collected from the PO group at 0.25 h, 0.5 h, 1 h, 2 h, 4 h, 7 h, and 24 h after administration, with approximately 100 μL collected each time via the orbital blood collection method.
The blood samples were placed in centrifuge tubes containing EDTA-K2 and centrifuged at 8000 rpm for 4 min within 30 min to separate the supernatant plasma. The resulting plasma samples were stored at −20° C. for later use. For sample analysis, 20 μL of each of plasma samples and calibration standards was added to a 96-well plate, and 160 μL of acetonitrile containing 100 ng/mL tolbutamide was added. The samples were vortexed for 5 min for uniform mixing, and then centrifuged at 4000 rpm for 15 min. After the centrifugation was completed, 50 μL of supernatant was added to a 96-well plate containing 150 μL of deionized water. The plate was then sealed and shaken for uniform mixing. Sample analysis was performed by LC-MS/MS.
The sampling volume could be adjusted according to actual needs, but the final concentration should be kept unchanged.

The mark [3] stands for this setting: Sprague-Dawley, rat, plasma, dose 1 mg/kg.
Setting [4] is: Sprague-Dawley, rat, plasma, read-out: AUC.
Where [5] appears, read: Sprague-Dawley, rat, plasma, read-out: Cmax.

Turning to `CCn1c(-c2cc(C#CCN3CCCN(C)CC3)cnc2[C@H](C)OC)c2c3cc(ccc31)-c1csc(n1)C[C@H](NC(=O)[C@H]1[C@H](C)[C@@H]1C)C(=O)N1CCC[C@H](N1)C(=O)OCC(C)(C)C2` (atropisomer, axis not shown; (Ra)) [Compound Z802, (1r,2R,3S)—N-((6^3S,4S,Z)-1^2-(5-(3-(4-methyl-1,4-diaza-1-yl)prop-1-yn-1-yl)-(Ra)-2-((S)-1-methoxyethyl)pyridin-3-yl)-1^1-ethyl-10,10-dimethyl-5,7-dioxo-6^1,6^2,6^3,6^4,6^5,6^6-hexahydro-1^1H-8-oxa-2(4,2)-thiazola-1(5,3)-indola-6(1,3)-pyridazinacycloundecaphane-4-yl)-2,3-dimethylcyclopropane-1-carboxamide], the IC50 in data set [1] (Homo sapiens, NCI-H441, 3 h) amounted to 0.4 nM.

Take `CCn1c(-c2cc(C#CCN3CCC(C(F)(F)F)CC3)cnc2[C@H](C)OC)c2c3cc(ccc31)-c1csc(n1)C[C@H](NC(=O)[C@H]1[C@H](C)[C@@H]1C)C(=O)N1CCC[C@H](N1)C(=O)OCC(C)(C)C2` (atropisomer, axis not shown; (Ra)) [Compound Z778]: in data set [1] (Homo sapiens, NCI-H441, 3 h), the IC50 was 0.37 nM. This compound also returned a clearance in data set [2] (setting [3]) of 5.31 mL/min/kg. Besides, in data set [2] (setting [4]), the AUC was 4020 ng·h/mL. Besides, in data set [2] (setting [5]), the Cmax amounted to 702 ng/mL.

On to `CCn1c(-c2cc(C#CCN3CCOC[C@H]3C)cnc2[C@H](C)OC)c2c3cc(ccc31)-c1csc(n1)C[C@H](NC(=O)[C@H]1[C@H](C)[C@@H]1C)C(=O)N1CCCC(N1)C(=O)OCC(C)(C)C2` (atropisomer, axis not shown; (Ra)) [Compound Z813], for which the IC50 in data set [1] came to 0.08 nM. Moreover, the “CL” value in data set [2] (dose 1 mg/kg) is 14.9 mL/min/kg. In addition, in data set [2], the “AUC” value turned out to be 1643 ng·h/mL and the highest concentration (Cmax) stood at 401 ng/mL.

Turning to `CCn1c(-c2cc(C#CCN3C4CCC3COC4)cnc2[C@H](C)OC)c2c3cc(ccc31)-c1csc(n1)C[C@H](NC(=O)[C@H]1[C@H](C)[C@@H]1C)C(=O)N1CCC[C@H](N1)C(=O)OCC(C)(C)C2` (atropisomer, axis not shown; (Ra)) [Compound Z711, (1r,2R,3S)—N-((6^3S,4S,Z)—(Ra)-1^2-(5-(3-(3-oxa-8-azabicyclo[3.2.1]octan-8-yl)prop-1-yn-1-yl)-2-((S)-1-methoxyethyl)pyridin-3-yl)-1^1-ethyl-10,10-dimethyl-5,7-dioxo-6^1,6^2,6^3,6^4,6^5,6^6-hexahydro-1^1H-8-oxa-2(4,2)-thiazola-1(5,3)-indola-6(1,3)-pyridazinacycloundecaphane-4-yl)-2,3-dimethylcyclopropane-1-carboxamide], the IC50 in data set [1] was 0.23 nM. Besides, the “CL” value in data set [2] (dose 1 mg/kg) is recorded as 3.82 mL/min/kg. In data set [2], the “AUC” value amounted to 8876 ng·h/mL and the “Cmax” value came to 1867 ng/mL.

In the case of `CCn1c(-c2cc(C#C[C@@H]3COCCN3C)cnc2[C@H](C)OC)c2c3cc(ccc31)-c1csc(n1)C[C@H](NC(=O)[C@H]1[C@H](C)[C@@H]1C)C(=O)N1CCC[C@H](N1)C(=O)OCC(C)(C)C2` (atropisomer, axis not shown; (Ra)) [Compound Z672, (1r,2R,3S)—N-((6^3S,4S,Z)-1^1-ethyl-(Ra)-1^2-(2-((S)-1-methoxyethyl)-5-(((R)-4-methylmorpholin-3-yl)ethynyl)pyridin-3-yl)-10,10-dimethyl-5,7-dioxo-6^1,6^2,6^3,6^4,6^5,6^6hexahydro-1^1H-8-oxa-2(4,2)-thiazola-1(5,3)-indola-6(1,3)-pyridazinacycloundecaphane-4-yl)-2,3-dimethylcyclopropane-1-carboxamide], in data set [1] (Homo sapiens, NCI-H441, 3 h), the IC50 was found to be 0.39 nM. In data set [2] (setting [3]), the clearance turned out to be 11.8 mL/min/kg. In data set [2] (setting [4]), the AUC was found to be 2940 ng·h/mL. The highest concentration (Cmax) in data set [2] (setting [5]) amounted to 738 ng/mL.

For the compound `CCn1c(-c2cc(C#CCN3CCCOCC3)cnc2C(C)C)c2c3cc(ccc31)-c1csc(n1)C[C@H](NC(=O)[C@H]1[C@H](C)[C@@H]1C)C(=O)N1CCC[C@H](N1)C(=O)OCC(C)(C)C2` (atropisomer, axis not shown; (Sa)) [Compound Z811-2, (1r,2R,3S)—N-((6^3S,4S,Z)—(Sa)-1-(5-(3-(1,4-oxazepan-4-yl)prop-1-yn-1-yl)-2-isopropylpyridin-3-yl)-1^1-ethyl-10,10-dimethyl-5,7-dioxo-6^1,6^2,6^3,6^4,6^5,6^6-hexahydro-1^1H-8-oxa-2(4,2)-thiazola-1(5,3)-indola-6(1,3)-pyridazinacycloundecaphane-4-yl)-2,3-dimethylcyclopropane-1-carboxamide], in data set [1], the IC50 amounted to 0.21 nM. For the same compound, the “CL” value in data set [2] (dose 1 mg/kg) is listed as 1.14 mL/min/kg. For the same compound, in data set [2], the “AUC” value was 29002 ng·h/mL and the “Cmax” value worked out at 4303 ng/mL.

In the case of `CCn1c(-c2cc(C#CCN(C)CCOC)cnc2[C@H](C)OC)c2c3cc(ccc31)-c1csc(n1)C[C@H](NC(=O)[C@H]1[C@H](C)[C@@H]1C)C(=O)N1CCC[C@H](N1)C(=O)OCC(C)(C)C2` (atropisomer, axis not shown; (Ra)) [Compound Z788], the IC50 in data set [1] was 0.19 nM. Besides, in data set [2] (dose 1 mg/kg), the “CL” value was 3.58 mL/min/kg. In data set [2], the “AUC” value is 8529 ng·h/mL and the “Cmax” value stood at 2110 ng/mL.

Regarding `CCn1c(-c2cc(C#CCN3CCS(=O)(=O)CC3)cnc2[C@H](C)OC)c2c3cc(ccc31)-c1csc(n1)C[C@H](Nc1nnc3cc(C)ccn13)C(=O)N1CCC[C@H](N1)C(=O)OCC(C)(C)C2` (atropisomer, axis not shown; (Ra)) [Compound Z911, (6^3S,4S,Z)—(Ra)-1^2-(5-(3-(1,1-dioxidothiomorpholino)prop-1-yn-1-yl)-2-((S)-1-methoxyethyl)pyridin-3-yl)-1^1-ethyl-10,10-dimethyl-4-((7-methyl-[1,2,4]triazolo[4,3-a]pyridin-3-yl)amino)-6^1,6^2,6^3,6^4,6^5,6^6-hexahydro-1^1H-8-oxa-2(4,2)-thiazola-1(5,3)-indola-6(1.3)-pyridazinacycloundecaphane-5,7-dione], in data set [1] (Homo sapiens, NCI-H441, 3 h), the IC50 came out at 0.74 nM. In data set [2] (setting [3]), this compound registered a clearance of 0.41 mL/min/kg. In addition, the AUC in data set [2] (setting [4]) is 2540 ng·h/mL. In data set [2] (setting [5]), the Cmax was 427 ng/mL.

As for `CCn1c(-c2cc(C#CCN3CCC3)cnc2[C@H](C)OC)c2c3cc(ccc31)-c1csc(n1)C[C@H](NC(=O)[C@H]1[C@H](C)[C@@H]1C)C(=O)N1CCC[C@H](N1)C(=O)OCC(C)(C)C2` (single isomer, unassigned) [Compound Z554], the IC50 in data set [1] (Homo sapiens, NCI-H441, 3 h) came out at 0.42 nM. The compound also returned a clearance in data set [2] (Sprague-Dawley, rat, plasma, dose 0.5 mg/kg) of 2.52 mL/min/kg. The AUC in data set [2] (setting [4]) came out at 16600 ng·h/mL. Besides, in data set [2] (setting [5]), the Cmax stood at 2780 ng/mL.

In the case of `CCO[C@@H](C)c1ncc(N2CCN(CCS(C)(=O)=O)CC2)cc1-c1c2c3cc(ccc3n1CC)-c1csc(n1)C[C@H](NC(=O)[C@H]1[C@H](C)[C@@H]1C)C(=O)N1CCC[C@H](N1)C(=O)OCC1(CC1)C2` (single isomer, unassigned) [Compound Z378-1], the IC50 in data set [1] (Homo sapiens, NCI-H441, 3 h) is 4.64 nM.

Consider `CCn1c(-c2cc(N3CCN4CC5(CC5)OC[C@@H]4C3)cnc2[C@H](C)OC)c2c3cc(ccc31)-c1csc(n1)C[C@H](NC(=O)[C@H]1[C@H](C)[C@@H]1C)C(=O)N1CCC[C@H](N1)C(=O)OCC1(CC1)C2` (atropisomer, axis not shown; (Ra)) [Compound Z13], for which the IC50 in data set [1] (Homo sapiens, NCI-H441, 3 h) is 0.88 nM.

Turning to `CCn1c(-c2cc(N3CCN(CCS(C)(=O)=O)CC3)cnc2[C@H](C)OC)c2c3cc(ccc31)-c1csc(n1)C[C@H](NC(=O)[C@H]1[C@H](C)[C@@H]1C)C(=O)N1CCC[C@H](N1)C(=O)OCC1(CC1)C2` (single isomer, unassigned) [Compound Z367], the IC50 in data set [1] (Homo sapiens, NCI-H441, 3 h) stood at 2.1 nM.

Values taken from patent US20260234165A1, “MACROCYCLIC COMPOUNDS, PREPARATION METHOD THEREFOR, AND USE THEREOF” (GENFLEET THERAPEUTICS (SHANGHAI) INC., priority 2004, published 2026).
